In patent EP2651946B1, “2-SUBSTITUTED IMIDAZOPYRAZINES FOR USE AS MPS-1 AND TKK INHIBITORS IN THE TREATMENT OF HYPERPROLIFERATIVE DISORDERS” (Bayer Intellectual Property GmbH, priority 2010, dated 2012) one finds IC50 data, which are given here for three molecules.

Each structure is given as a SMILES string.

This test concerns the target T1, human kinase Mps-1 (Homo sapiens, UniProt P33981).
T1 construct: N-terminally GST-tagged human full length recombinant Mps-1 kinase; purchased Invitrogen, Karslruhe, Germany PV4071
T1 sequence (P33981 1-857): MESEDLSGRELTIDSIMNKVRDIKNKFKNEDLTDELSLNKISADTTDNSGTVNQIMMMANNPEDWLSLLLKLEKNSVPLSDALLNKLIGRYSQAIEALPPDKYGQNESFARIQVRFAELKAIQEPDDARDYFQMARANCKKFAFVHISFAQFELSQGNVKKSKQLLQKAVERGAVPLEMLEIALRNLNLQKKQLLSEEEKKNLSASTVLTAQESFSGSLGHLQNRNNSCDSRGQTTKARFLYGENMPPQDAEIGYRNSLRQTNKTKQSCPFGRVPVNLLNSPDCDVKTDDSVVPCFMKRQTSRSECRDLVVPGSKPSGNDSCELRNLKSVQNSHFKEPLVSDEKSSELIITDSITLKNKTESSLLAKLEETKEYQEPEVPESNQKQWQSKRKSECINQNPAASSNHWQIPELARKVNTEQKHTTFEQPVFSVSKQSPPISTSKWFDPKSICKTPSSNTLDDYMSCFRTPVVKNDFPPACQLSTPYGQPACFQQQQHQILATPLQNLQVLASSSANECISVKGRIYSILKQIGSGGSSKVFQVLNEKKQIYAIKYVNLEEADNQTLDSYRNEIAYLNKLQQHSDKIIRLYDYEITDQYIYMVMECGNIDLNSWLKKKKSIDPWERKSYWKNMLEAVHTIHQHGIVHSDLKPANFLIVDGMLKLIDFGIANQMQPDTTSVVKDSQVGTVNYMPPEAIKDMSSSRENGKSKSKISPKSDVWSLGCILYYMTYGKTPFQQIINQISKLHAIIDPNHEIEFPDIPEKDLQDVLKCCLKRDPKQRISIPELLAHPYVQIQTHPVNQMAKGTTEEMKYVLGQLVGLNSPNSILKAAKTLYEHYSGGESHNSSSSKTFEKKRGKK
Briefly: Mps-1 kinase assay (TR-FRET). It is filed as biochemical. Particulars: N-terminally GST-tagged human full length recombinant Mps-1; 10 µM ATP; 1 µM peptide substrate; 15 min pre-incubation, 60 min reaction at 22°C; read-out: Mps1 IC50. As to the method: The human kinase Mps-1 phosphorylates a biotinylated substrate peptide. Detection of the phosphorylated product is achieved by time-resolved fluorescence resonance energy transfer (TR-FRET) from Europium-labelled anti-phospho-Serine/Threonine antibody as donor to streptavidin labelled with cross-linked allophycocyanin (SA-XLent) as acceptor. Compounds are tested for their inhibition of the kinase activity.
N-terminally GST-tagged human full length recombinant Mps-1 kinase (purchased from Invitrogen, Karslruhe, Germany, cat. no PV4071) was used. As substrate for the kinase reaction a biotinylated peptide of the amino-acid sequence PWDPDDADITEILG (C-terminus in amide form, purchased from Biosynthan GmbH, Berlin) was used.
For the assay 50 nL of a 100-fold concentrated solution of the test compound in DMSO was pipetted into a black low volume 384well microtiter plate (Greiner Bio-One, Frickenhausen, Germany), 2 µl of a solution of Mps-1 in assay buffer [0.1 mM sodium-ortho-vanadate, 10 mM MgCl2, 2 mM DTT, 25 mM Hepes pH 7.7, 0.05% BSA, 0.001% Pluronic F-127] were added and the mixture was incubated for 15 min at 22°C to allow pre-binding of the test compounds to Mps-1 before the start of the kinase reaction. […]
The resulting mixture was incubated 1 h at 22°C to allow the binding of the phosphorylated peptide to the anti-phospho(Ser/Thr)-Europium-antibody. Subsequently the amount of phosphorylated substrate was evaluated by measurement of the resonance energy transfer from the Europium-labelled anti-phospho(Ser/Thr) antibody to the Streptavidin-XLent. Therefore, the fluorescence emissions at 620 nm and 665 nm after excitation at 350 nm was measured in a Viewlux TR-FRET reader (PerkinElmer LAS, Rodgau-Jugesheim, Germany). The "blank-corrected normalized ratio" ( a Viewlux specific readout, similar to the traditional ratio of the emissions at 665 nm and at 622 nm, in which blank and Eudonor crosstalk are subtracted from the 665 nm signal before the ratio is calculated) was taken as the measure for the amount of phosphorylated substrate. […]
For the molecule `CC(C)CNc1nc(-c2ccccc2)cn2c(-c3ccc(C(=O)NC4CC4)cc3)c(CO)nc12` [Example 1-1, N-cyclopropyl-4-[2-(hydroxymethyl)-8-(isobutylamino)-6-phenylimidazo[1,2-a]pyrazin-3-yl]benzamide], the IC50 (as a rule, the concentration at which inhibition is half-maximal) is 178 nM.
Next, `COC(=O)c1nc2c(NCC(C)C)nc(-c3ccccc3)cn2c1-c1ccc(C(=O)NC2CC2)cc1` [Example 3-1, Methyl 3-[4-(cyclopropylcarbamoyl)phenyl]-8-[(2-methylpropyl)amino]-6-phenylimidazo[1,2-a]pyrazine-2-carboxylate]: 4250 nM.
Next, `CC(C)CNc1nc(-c2ccccc2)cn2c(-c3ccc(C(=O)NC4CC4)cc3)c(N)nc12` [Example 4-1, 4-[2-Amino-8-(isobutylamino)-6-phenylimidazo[1,2-a]pyrazin-3-yl]-N-cyclopropylbenzamide]: 16 nM.
